Assay results from US8916499B2, “Herbicidal compositions comprising 4-amino-3-chloro-5-fluoro-6-(4-chloro-2-fluoro-3-methoxyphenyl) pyridine-2-carboxylic acid or a derivative thereof and a protoporphyrinogen oxidase inhibitor” (Dow AgroSciences LLC, priority 2012, dated 2014).

What was measured:
[1] = system: ECHOR; test: In-water applied weed control, transplanted paddy rice, greenhouse (Example II); assay type: in vivo, Echinochloa oryzoides (Ard.) Fritsch
[2] = system: IPOHE; test: Postemergence foliar-applied weed control, direct seeded rice, greenhouse (Example I); assay type: in vivo, Ipomoea hederacea Jacq.
[3] = system: IPOHE; test: Pre-emergence soil-applied weed control, greenhouse (Example IV); assay type: in vivo, Ipomoea hederacea (L.) Jacq.
Excerpt: Seeds or nutlets of the desired test plant species were planted in a soil matrix prepared by mixing a loam soil (32 percent silt, 23 percent clay, and 45 percent sand, with a pH of about 6.5 and an organic matter content of about 1.9 percent) and calcareous grit in an 80 to 20 ratio. The soil matrix was contained in plastic pots with a volume of 1 quart and a surface area of 83.6 square centimeters (cm^2).
Treatments consisted of the benzyl ester of 4-amino-3-chloro-5-fluoro-6-(4-chloro-2-fluoro-3-methoxy-phenyl)pyridine-2-carboxylic acid (compound A) formulated as an SC (suspension concentrate) and various herbicidal components alone and in combination. Forms of compound A were applied on an acid equivalent basis.
Other herbicidal components were applied on an acid equivalent or active ingredient basis and included the protoporphyrinogen oxidase (PPO)-inhibiting herbicides, flumioxazin formulated as Payload® and oxadiazon formulated as Ronstar® 50W.
Treatment requirements were calculated based upon the rates being tested, the concentration of active ingredient or acid equivalent in the formulation, and a 12 mL application volume at a rate of 187 L/ha.
For treatments comprised of formulated compounds, measured amounts of compounds were placed individually in 25 mL glass vials and diluted in a volume of 1.25% (v/v) Agri-Dex® crop oil concentrate (COC) to obtain 12× stock solutions. […] Application solutions were prepared by adding an appropriate amount of each stock solution (e.g., 1 mL) and diluted to the appropriate final concentrations with the addition of 10 mL of an aqueous mixture of 1.25% (v/v) COC so that the final spray solutions contained 1.25% (v/v) COC.
All stock solutions and applications solutions were visually inspected for compound compatibility prior to application. Spray solutions were applied to the soil with an overhead Mandel track sprayer equipped with a 8002E nozzles calibrated to deliver 187 L/ha over an application area of 0.503 m^2 at a spray height of 18 inches (46 cm) above average pot height. Control pots were sprayed in the same manner with the solvent blank.
The treated and control pots were placed in a greenhouse and top watered as needed. When required to ensure good germination and healthy plants, a fungicide treatment and/or other chemical or physical treatment was applied. The pots were maintained in a greenhouse with an approximate 14 hr photoperiod which was maintained at about 29° C. during the day and 26° C. during the night. Nutrients (Peters® Excel 15-5-15 5-Ca 2-Mg) were applied in the irrigation solution as needed and water was added on a regular basis. Supplemental lighting was provided with overhead metal halide 1000-Watt lamps as necessary. After approximately 4 weeks, the condition of the test plants as compared with that of the untreated plants was determined visually and scored on a scale of 0 to 100 percent where 0 corresponds to no injury or growth inhibition and 100 corresponds to complete kill.
Colby's equation was used to determine the herbicidal effects expected from the mixtures (Colby, S. R. 1967. Calculation of the synergistic and antagonistic response of herbicide combinations. Weeds 15:20-22.).
The following equation was used to calculate the expected activity of mixtures containing two active ingredients, A and B: Expected=A+B−(A×B/100)

[4] = system: ECHCG; test: Postemergence foliar-applied weed control, direct seeded rice, greenhouse (Example I); assay type: in vivo, Echinochloa crusgalli (L.) Beauv.
[5] = system: SCPJU; test: In-water applied weed control, transplanted paddy rice, greenhouse (Example II); assay type: in vivo, Schoenoplectus juncoides (Roxb.) Palla
[6] = system: ECHCO; test: Postemergence foliar-applied weed control, direct seeded rice, greenhouse (Example I); assay type: in vivo, Echinochloa colona (L.) Link; settings: g ae/ha Compound A Acid+g ai/ha oxyfluorfen (SC): r24 4.38+0, r25 8.75+0, r26 0+90, r27 4.38+90, r28 8.75+90
[7] = system: DIGSA; test: as above; assay type: in vivo, Digitaria sanguinalis (L.) Scop.
[8] = system: CYPRO; test: In-water applied weed control, transplanted paddy rice, greenhouse (Example II); assay type: in vivo, Cyperus rotundus L.
[9] = system: LEFCH; test: Postemergence foliar-applied weed control, direct seeded rice, greenhouse (Example I); assay type: in vivo, Leptochloa chinensis (L.) Nees; settings: g ae/ha Compound A n-Butyl Ester+g ai/ha carfentrazone-ethyl: r11 16+0, r12 0+28, r13 16+28
[10] = system: LEFCH; test: In-water applied weed control, transplanted paddy rice, greenhouse (Example II); assay type: in vivo, Leptochloa chinensis (L.) Nees; settings: 35 g ae/ha alone
[11] = system: ECHCG; test: as above; assay type: in vivo, Echinochloa crus-galli (L.) P. Beauv.; settings: 56.25 g ai/ha alone
[12] = system: FIMMI; test: as above; assay type: in vivo, Fimbristylis miliacea (L.) Vahl
[13] = g ae/ha Compound A n-Butyl Ester+g ai/ha oxadiazon: r11 17.5+0, r12 0+250, r13 17.5+250

CC(C)Oc1cc(-n2nc(C(C)(C)C)oc2=O)c(Cl)cc1Cl [Oxadiazon, 3-[2,4-dichloro-5-(1-methylethoxy)phenyl]-5-(1,1-dimethylethyl)-1,3,4-oxadiazol-2(3H)-one]
Visual Weed Control (%) - 21 DAA ECHOR Obs ([1]; 62.5 g ai/ha alone): 15% | Visual Weed Control (%) - 21 DAA ECHOR Obs ([1]; 250 g ai/ha alone): 18% | Visual Weed Control (%) - 21 DAA ECHOR Obs ([1]; second block, g ae/ha Compound A Acid+g ai/ha oxadiazon: r22 35+0, r23 70+0, r24 0+250, r25 35+250, r26 70+250): 18% | Visual Weed Control (%) - 21 DAA IPOHE Obs ([2]; g ae/ha Compound A Benzyl Ester+g ai/ha oxadiazon: r33 17.5+0, r34 0+250, r35 17.5+250): 5% | Visual Weed Control (%) - 21 DAA IPOHE Obs [2, 13]: 5% | Visual Weed Control (%) - 20 DAA IPOHE Obs ([2]; second section, g ae/ha Compound A Acid+g ai/ha oxadiazon: r23 17.5+0, r24 35+0, r25 0+250, r26 17.5+250, r27 35+250): 5% | Visual Weed Control (%) - 32 DAA IPOHE Obs ([3]; 560 g ai/ha alone): 50% | Visual Weed Control (%) - 32 DAA IPOHE Obs ([3]; 1120 g ai/ha alone): 100%

CCOc1cc(Oc2ccc(C(F)(F)F)cc2Cl)ccc1[N+](=O)[O-] [Oxyfluorfen, 2-chloro-1-(3-ethoxy-4-nitrophenoxy)-4-(trifluoromethyl)benzene, reference compound]
Visual Weed Control (%) - 23 DAA ECHCG Obs ([4]; g ae/ha Compound A Acid+g ai/ha oxyfluorfen (SC): r13 4.38+0, r14 8.75+0, r15 17.5+0, r16 0+180, r17 4.38+180, r18 8.75+180, r19 17.5+180): 30% | Visual Weed Control (%) - 22 DAA SCPJU Obs ([5]; g ae/ha Compound A Acid+g ai/ha oxyfluorfen (technical): r19 8.75+0, r20 17.5+0, r21 35+0, r22 0+180, r23 0+360, r24 8.75+180, r25 17.5+180, r26 35+180, r27 8.75+360, r28 17.5+360, r29 35+360): 0% | Visual Weed Control (%) - 23 DAA ECHCO Obs [6]: 50% | Visual Weed Control (%) - 23 DAA DIGSA Obs ([7]; g ae/ha Compound A Benzyl Ester+g ai/ha oxyfluorfen (SC): r14 4.38+0, r15 8.75+0, r16 17.5+0, r17 0+180, r18 4.38+180, r19 8.75+180, r20 17.5+180): 60% | Visual Weed Control (%) - 21 DAA DIGSA Obs ([7]; g ae/ha Compound A Benzyl Ester+g ai/ha oxyfluorfen (technical): r15 4.38+0, r16 8.75+0, r17 17.5+0, r18 0+180, r19 4.38+180, r20 8.75+180, r21 17.5+180): 50% | Visual Weed Control (%) - 23 DAA IPOHE Obs ([2]; g ae/ha Compound A Benzyl Ester+g ai/ha oxyfluorfen (SC): r36 4.38+0, r37 8.75+0, r38 17.5+0, r39 0+90, r40 0+180, r41 4.38+90, r42 8.75+90, r43 17.5+90, r44 4.38+180, r45 8.75+180, r46 17.5+180): 85% | Visual Weed Control (%) - 21 DAA CYPRO Obs ([8]; g ae/ha Compound A Acid+g ai/ha oxyfluorfen (SC): r28 16+0, r29 32+0, r30 64+0, r31 0+135, r32 0+270, r33 16+135, r34 32+135, r35 64+135, r36 16+270, r37 32+270, r38 64+270): 0% | Visual Weed Control (%) - 22 DAA CYPRO Obs ([8]; g ae/ha Compound A Acid+g ai/ha oxyfluorfen (technical): r11 10.6+0, r12 21.2+0, r13 42.4+0, r14 0+180, r15 10.6+180, r16 21.2+180, r17 42.4+180): 50% | Visual Weed Control (%) - 21 DAA CYPRO Obs ([8]; g ae/ha Compound A Benzyl Ester+g ai/ha oxyfluorfen (SC): r11 32+0, r12 0+135, r13 0+270, r14 32+135, r15 32+270): 0%

CCCCOC(=O)c1nc(-c2ccc(Cl)c(OC)c2F)c(F)c(N)c1Cl [Compound A n-Butyl Ester]
Visual Weed Control (%) - 21 DAA ECHOR Obs ([1]; 35 g ae/ha alone): 25% | Visual Weed Control (%) - 21 DAA ECHOR Obs ([1]; 70 g ae/ha alone): 38% | Visual Weed Control (%) - 19 DAA LEFCH Obs [9]: 10% | Visual Weed Control (%) - 21 DAA IPOHE Obs [2, 13]: 40% | Visual Weed Control (%) - 21 DAA LEFCH Obs [10]: 8%

CC(C)=C1OC(=O)N(c2cc(OC3CCCC3)c(Cl)cc2F)C1=O [Pentoxazone, 3-[4-chloro-5-(cyclopentyloxy)-2-fluorophenyl]-5-(1-methylethylidene)-2,4-oxazolidinedione]
Visual Weed Control (%) - 21 DAA SCPJU Obs ([5]; 56.25 g ai/ha alone): 0% | Visual Weed Control (%) - 21 DAA SCPJU Obs ([5]; 112.5 g ai/ha alone): 0% | Visual Weed Control (%) - 21 DAA ECHCG Obs [11]: 0% | Visual Weed Control (%) - 21 DAA FIMMI Obs ([12]; 56.25 g ai/ha alone): 25% | Visual Weed Control (%) - 21 DAA FIMMI Obs ([12]; 112.5 g ai/ha alone): 20% | Visual Weed Control (%) - 21 DAA CYPRO Obs ([8]; 56.25 g ai/ha alone): 0% | Visual Weed Control (%) - 21 DAA CYPRO Obs ([8]; 112.5 g ai/ha alone): 0%

C#CCOc1cc(-n2nc(C(C)(C)C)oc2=O)c(Cl)cc1Cl [Oxadiargyl, 3-[2,4-dichloro-5-(2-propynyloxy)phenyl]-5-(1,1-dimethylethyl)-1,3,4-oxadiazol-2(3H)-one]
Visual Weed Control (%) - 22 DAA IPOHE Obs ([2]; g ae/ha Compound A Acid+g ai/ha oxadiargyl: r10 4.38+0, r11 8.75+0, r12 17.5+0, r13 0+50, r14 4.38+50, r15 8.75+50, r16 17.5+50): 25% | Visual Weed Control (%) - 22 DAA IPOHE Obs ([2]; g ae/ha Compound A Benzyl Ester+g ai/ha oxadiargyl: r11 4.38+0, r12 8.75+0, r13 0+50, r14 4.38+50, r15 8.75+50): 25%

CCOC(=O)COc1cc(-c2nn(C)c(OC(F)F)c2Cl)c(F)cc1Cl [Pyraflufen-ethyl, ethyl 2-[2-chloro-5-[4-chloro-5-(difluoromethoxy)-1-methyl-1H-pyrazol-3-yl]-4-fluorophenoxy]acetate, reference compound]
Visual Weed Control (%) - 21 DAA ECHCG Obs ([4]; g ae/ha Compound A Benzyl Ester+g ai/ha pyraflufen-ethyl: r11 8+0, r12 0+5.3, r13 0+10.6, r14 8+5.3, r15 8+10.6): 15%
